From PubChem BioAssay AID1645864 (Buhrlage Lab, Dana-Farber Cancer Institute and Novartis …, 2021)
pIC50: −log10 of the molar value. Activity calls are given as the source filed them.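 How the source made its calls: active means maximal inhibition of USP17 at or above 30% in the confirmation dose-response, a value not among the printed readouts; inactive means the rest.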

target: Ubiquitin carboxyl-terminal hydrolase 17-like protein 5 (Homo sapiens) (UniProt A8MUK1); assay: ubiquitin-specific protease 17 DUB inhibitors, concentration-effect assay, cell-free, verification of initial screening actives (AID 1645864); details: purified USP17, ubiquitin-rhodamine cleavage fluorescence, 3 h
Sequence (A8MUK1 whole entry, looked up): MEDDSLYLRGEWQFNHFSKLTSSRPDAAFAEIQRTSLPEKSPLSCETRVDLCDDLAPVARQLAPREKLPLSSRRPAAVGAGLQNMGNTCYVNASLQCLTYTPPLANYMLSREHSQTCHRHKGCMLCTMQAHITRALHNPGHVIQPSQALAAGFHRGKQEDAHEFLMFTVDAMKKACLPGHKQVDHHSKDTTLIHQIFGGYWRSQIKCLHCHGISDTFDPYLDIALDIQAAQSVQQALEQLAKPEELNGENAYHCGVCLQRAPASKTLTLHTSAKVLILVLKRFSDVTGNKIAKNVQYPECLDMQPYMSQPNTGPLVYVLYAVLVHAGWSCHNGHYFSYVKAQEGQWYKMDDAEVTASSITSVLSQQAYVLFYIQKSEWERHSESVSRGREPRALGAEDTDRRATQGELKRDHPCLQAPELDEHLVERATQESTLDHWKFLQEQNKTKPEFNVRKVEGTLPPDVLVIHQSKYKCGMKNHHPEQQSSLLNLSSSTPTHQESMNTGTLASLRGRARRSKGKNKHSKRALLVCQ

Structure (SMILES) | pIC50 | IC50
COC1/C=C/OC2(C)Oc3c(C)c(O)c4c(c3C2=O)C(=O)C=C(NC(=O)/C(C)=C\C=C\C(C)C(O)C(C)C(O)C(C)C(OC(C)=O)C1C)C4=O (stereo not drawn) | 4.73 | –
COc1cc2c(c(OCC(=O)Nc3ccc4c(c3)OCCO4)c1)C(=O)O[C@@H](C)CCCC(=O)CCCCC2 | 4.64 | –
O=[N+]([O-])c1ccc(NCC2COc3ccccc3O2)c(Cl)c1 (stereo not drawn) | – | > 50 µM (inactive)
O=C(CCc1nnc2n(Cc3ccccc3)c(=O)c3ccccc3n12)N1CCN(c2ccccn2)CC1 | 4.95 | –
COc1cccc(NC(=O)Nc2nccn(-c3ccc(F)cc3)c2=O)c1 | 4.86 | –
O=C1CC(O)C(C2=CC(=O)c3c(O)cccc3C2=O)O1 (stereo not drawn) | 6.63 | –
O=C(Cn1c(=O)n(CCCC(=O)N2CC=C(c3ccccc3)CC2)c(=O)c2ccccc21)NCCC1=CCCCC1 | 4.46 | –
O=C(CNC(=O)c1cccc(F)c1)Nc1nc2ccccc2[nH]1 | 4.72 | –
O=C(NC1CCCCC1)c1cc2c(cn1)[nH]c1ccccc12 | – | > 50 µM (inactive)
COc1ccc(-c2cc(-c3ccccc3)nc(SCC(N)=O)c2C#N)cc1OC | 5.79 | –
CC1=C(c2ccc(F)cc2)S(=O)(=O)NC1=NCC(=O)Nc1cccc(F)c1 | 4.47 | –
COc1ccccc1NC(=O)Cn1cc(C(=O)c2ccc(C)cc2)c(=O)c2ccccc21 | 4.64 | –
CCOc1ccc(CCNC(=O)c2cccc3c2C(=O)N(CCOC)C3)cc1OCC | – | > 50 µM (inactive)
O=C(c1cc(-c2ccncc2)n[nH]1)N1CCC(C(=O)N2CC=C(c3ccccc3)CC2)CC1 | 4.55 | –
COc1ccc(Nc2nc3c(S(=O)(=O)c4ccc(C)cc4)nnn3c3ccsc23)c(OC)c1 | 5.58 | –
CC1(C)Cc2nc3sc4c(=O)n(CC(=O)NCc5ccccc5)cnc4c3cc2CO1 | 4.35 | –
O=C(COC(=O)c1ccc(CN2CCCC2=O)cc1)c1ccc2c(c1)OCCO2 | – | > 50 µM (inactive)
O=C1CC(c2cc3c(cc2Br)OCO3)c2cc3c(cc2N1)OCCO3 (stereo not drawn) | 4.71 | –
CC1Cc2ccccc2N1C(=O)Cn1c(=O)cc(O)c2ccccc21 (stereo not drawn) | – | > 50 µM (inactive)
Cc1ccc(Nc2nc(C(=O)NCc3ccc4c(c3)OCO4)cc3occc23)cc1Cl | 4.55 | –
Cc1cnc(CN2CCCC(c3ccc4cn[nH]c4n3)C2)cn1 (stereo not drawn) | – | > 50 µM (inactive)
O=C1C[C@@H]2O[C@H](CNC(=O)[C@@H]3CN(CCN3C(=O)C3CCOCC3)C(=O)[C@@H]3C[C@@H](CN3Cc3ccc(F)c(F)c3)N1)[C@@H](O)[C@H]2O | – | > 50 µM (inactive)
NS(=O)(=O)c1cccc(NS(=O)(=O)c2ccc(/C=C/C(=O)OCC(=O)c3ccc(Br)cc3)cc2)c1 | – | > 50 µM (inactive)
CC1=C(C(=O)Nc2ccccc2C)C(c2ccc(OCc3ccccc3F)cc2)n2ncnc2N1 (stereo not drawn) | 4.46 | –

Structure (SMILES) | pIC50 | IC50
O=c1c2cnc(N3CCOCC3)nc2ccn1CCc1ccccc1 | 4.74 | –
Cc1ccccc1C(=O)OCCN1C(=O)c2cccc3c(N4CCCCC4)ccc(c23)C1=O | – | > 50 µM (inactive)
CCN1C(=O)c2cccnc2Sc2cc(NC(=O)c3ccc(Cl)s3)ccc21 | – | > 50 µM (inactive)
O=C(CN1C(=O)C2CCCC2=Nc2ccccc21)Nc1ccc(F)cc1F (stereo not drawn) | 4.49 | –
Cc1cc(C(=O)N2CC(C(=O)Nc3cc(C(F)(F)F)ccc3Cl)C2)no1 | 4.42 | –
Cc1ccc(C)c(-c2cc3c(=O)n(Cc4noc(CN5CCCCC5)n4)ccn3n2)c1 | – | > 50 µM (inactive)
CSc1ccccc1NC(=O)c1ccc(-n2cccn2)nn1 | 5.35 | –
COc1ccc(-c2cc(C(F)F)n3ncc(C(=O)Nc4ccc5c(c4)OCCO5)c3n2)cc1 | – | > 50 µM (inactive)
Nc1ncnc(SCc2ccc(Cl)cc2)n1 | 4.57 | –
Cc1ccccc1NC(=O)Cn1cc(-c2nc(C3CC3)no2)ccc1=O | – | > 50 µM (inactive)
CCOC(=O)N1CCN(S(=O)(=O)c2ccc(C(=O)Nc3ccc(Br)cc3)cc2)CC1 | 5.75 | –
O=C(/C=C/c1ccccc1)N1CCN(C2=NS(=O)(=O)c3ccccc32)CC1 | – | > 50 µM (inactive)
Cc1ccc2nc(NC(=O)C3CCCN3S(=O)(=O)c3ccc4c(c3)OCCO4)sc2c1 (stereo not drawn) | – | > 50 µM (inactive)
Cc1ccc2[nH]c(=O)c(CN(Cc3cccnc3)C(=O)c3cccc(Cl)c3)cc2c1 | – | > 50 µM (inactive)
CN1C(=O)[C@@]23C[C@]4([C@@]56C[C@]78SS[C@](CO)(C(=O)N7[C@@H]5Nc5ccccc56)N(C)C8=O)c5ccccc5N[C@@H]4N2C(=O)[C@]1(CO)SS3 | – | > 50 µM (inactive)
CCCCC/C=C/C=C/C(=O)OC1C(O)CC(c2ccc3c(c2O)C(=O)c2c(O)cc4cc(C)cc(O)c4c2C3=O)OC1C (stereo not drawn) | 6.40 | –
CO[C@H]1[C@@H](O)[C@H](C)O[C@H](O[C@H]2[C@H](Oc3cccc4c(O)c5c(=O)oc6ccc(C)c7c(=O)oc(c34)c5c67)O[C@H](C)[C@H](O)[C@@H]2O)[C@@H]1O | – | > 50 µM (inactive)
Cc1cc2nc(-c3ccc(SCc4ccccn4)nc3)[nH]c2cc1C | 4.51 | –
CN1c2ccccc2CN(CC(N)=O)CC1Cc1ccccc1 (stereo not drawn) | – | > 50 µM (inactive)
Cc1ccccc1NC(=O)c1nc(-c2cn(Cc3ccc(F)cc3)nn2)no1 | 5.07 | –
O=C(CCn1c(=O)c2sccc2n(CC(=O)OCc2ccccc2)c1=O)NCc1ccc2c(c1)OCO2 | 4.85 | –
Cc1cccc(NC(=O)CSc2ccc(-n3cnc(-c4ccccc4)c3)nn2)c1 | 5.21 | –
COc1ccc(NC(=O)c2nnn(-c3ccccc3C)c2C)cc1OC | – | > 50 µM (inactive)
O=C(CCC1CCCCC1)Nc1ccccc1C(=O)N1CCOCC1 | – | > 5 µM (inactive)

Structure (SMILES) | pIC50 | IC50
O=c1c(OC2O[C@H](CO)[C@H](O)[C@H](O)[C@H]2O)c(-c2ccc(O)cc2)oc2cc(O)cc(O)c12 (stereo partly drawn) | 4.33 | –
CC(=O)N1CCc2cc(S(=O)(=O)NC(Cc3ccccc3)C(=O)Nc3cccc(Cl)c3C)ccc21 (stereo not drawn) | 4.89 | –
COc1ccc(C(C(=O)NC2CCCCC2)N(C(=O)CCCC(=O)Nc2ccccn2)c2ccccc2C)cc1 (stereo not drawn) | 4.65 | –
C=C(NC(=O)C(=C)NC(=O)c1csc(-c2ccc3c(n2)-c2csc(n2)-c2csc(n2)C(C(C)C2CO2)NC(=O)C(Cc2ccc(O)cc2)NC(=O)c2csc(n2)C(C(O)c2ccccc2)NC(=O)c2nc(sc2C)C(CC(N)=O)NC(=O)c2csc-3n2)n1)C(=O)O (stereo not drawn) | 4.57 | –
CCOc1ccc2c(c1)c(=O)c(C(=O)c1ccccc1)cn2CC(=O)Nc1ccc2c(c1)OCCO2 | 4.69 | –
COc1ccc(CCN2COc3c(cc(Cl)c4cccnc34)C2)cc1OC | 4.61 | –
O=C1N[C@@H](Cc2ccccc2)C(=O)N2[C@H]3Nc4ccccc4[C@@]3([C@]34C[C@H]5C(=O)N[C@@H](Cc6ccccc6)C(=O)N5[C@H]3Nc3ccccc34)C[C@@H]12 | 4.42 | –
COc1ccc(OCC(=O)Nc2ccc(C)c(OCc3cc(=O)n4ccccc4n3)c2)cc1 | 5.37 | –
O=C(Nc1ccc2sccc2c1)c1ccc(F)cc1 | 4.39 | –
CCOc1cc(N2CCOCC2)c(OCC)cc1NC(=O)c1cc(-c2ccncc2)nc2ccccc12 | 4.99 | –
COc1cc(NC(=O)COC(=O)Cn2cnc3ccccc32)cc(OC)c1 | – | > 50 µM (inactive)
O=C(NCc1ccc2c(c1)OCO2)c1[nH]nc2c1COc1ccccc1-2 | 5.73 | –
COC1=CC(=O)c2c(O)c(C)c(CC(C)=O)c(O)c2C1=O | 5.54 | –
O=C(COC(=O)CCc1ccc(S(=O)(=O)N2CCOCC2)cc1)Nc1ccc2c(c1)OCCO2 | – | > 50 µM (inactive)
Cc1ccc(Nc2nc(NCCc3ccccc3)nc3c2cnn3C)cc1 | 4.35 | –
CC(CCc1ccccc1)NC(=O)C(=O)c1cn(CC(=O)N2CCOCC2)c2ccccc12 (stereo not drawn) | – | > 50 µM (inactive)
O=c1ccc(-c2noc(Cc3c(F)cccc3Cl)n2)c[nH]1 | – | > 50 µM (inactive)
CC1CC(=O)c2c(cc3c(-c4c(O)cc(O)c5c(O)c6c(cc45)OC(C)CC6=O)c(O)cc(O)c3c2O)O1 (stereo not drawn) | 6.31 | –
CCCn1cc(C(=O)N2CCC3(CC2)CC2(CO3)Nc3ccccc3-n3cccc32)c(C)n1 (stereo not drawn) | 4.56 | –
O=C(COc1ccc2c(c1)CCC2)Nc1ccc2c(c1)CCC2 | 4.72 | –
CN(C)CCc1cc2c(c3c1ccc1ccccc13)OCO2 | – | > 50 µM (inactive)
Cc1cc(C)c(NC(=O)CSc2nc3nccnc3c(=O)n2Cc2ccccc2Cl)c(C)c1 | 5.40 | –
Cc1ccc(NC(=O)C2CCN(c3cncnc3N3CCCC3)CC2)cc1 | – | > 50 µM (inactive)
COc1ccccc1CNC(=O)Nc1cccc2ccccc12 | 4.41 | –

Structure (SMILES) | pIC50 | IC50
COC(=O)c1cc(C)sc1NC(=O)c1cccc(OC)c1OC | – | > 50 µM (inactive)
Cc1cc(C(=O)Nc2cc(C)n(Cc3ccc(Cl)cc3)n2)no1 | – | > 50 µM (inactive)
COc1ccc(N(CC(=O)Nc2cccc(F)c2)S(=O)(=O)c2ccc(OC)c(OC)c2)cc1 | 4.60 | –
Cc1cc(C)c2cc3c(nc2c1)OC(=O)N(Cc1ccco1)C3 | 4.51 | –
Cc1ccc([N+](=O)[O-])cc1S(=O)(=O)Nc1cc2sc(=O)oc2c2ccccc12 | 5.46 | –
COc1ccc(C(=O)Nc2n[nH]c(C)c2-c2cccc(C)c2)c(OC)c1 | 5.56 | –
Cc1cc(C)cc(NC(=O)CSc2ccc(-c3ccncc3)nn2)c1 | – | > 50 µM (inactive)
COC(=O)c1sc2ccccc2c1NC(=O)c1ccc(Br)s1 | 4.69 | –
COc1cc(OC)cc(C(=O)Nc2cnc(-c3ccccc3)nc2)c1 | – | > 50 µM (inactive)
CC[C@@]1(O)C[C@H](OC2CC(N(C)C)C(OC3CC(O)C(OC4CCC(=O)C(C)O4)C(C)O3)C(C)O2)c2c(cc3c(c2O)C(=O)c2c(O)ccc(O)c2C3=O)[C@H]1C(=O)OC (stereo partly drawn) | 5.60 | –
O=C1C=C(O)c2c(O)cccc2C1=O | 4.92 | –
COc1ccc(NC(=O)c2cc(-c3cccnc3)n[nH]2)cc1Cl | 4.96 | –
O=c1[nH]c(C2CCN(S(=O)(=O)c3ccc(S(=O)(=O)NC4CCCCC4)cc3)CC2)nc2c1nnn2Cc1c(Cl)cccc1Cl | 5.04 | –
CNc1nc2c(c(=O)n1Cc1ccccc1)CN(C(=O)c1ccc(CN)cc1)CC2 | 4.55 | –
COc1ccc(CN(C(=O)c2cc(-c3ccc(C)cc3)on2)C2CCS(=O)(=O)C2)cc1 (stereo not drawn) | 4.76 | –
Cc1ccc(-c2nc(Cn3cnc4ccccc4c3=O)cs2)cc1 | 5.14 | –
O=C(NCCCc1nc2ccccc2n1Cc1c(Cl)cccc1Cl)c1ccco1 | 4.44 | –
Clc1ccccc1CSc1nnc(C2CCCCC2)n1Cc1ccccc1 | 4.39 | –
O=c1c2ccccc2ncn1C1CCN(S(=O)(=O)c2ccccc2F)CC1 | 4.54 | –
O=C(Nc1ccccc1)c1cn2c3c(cccc3c1=O)CC2 | 4.57 | –
CSc1nccc(-c2ccc(F)cc2)c1C#N | 4.68 | –
